These results are taken from US6528510B1, “HIV protease inhibitors” (Warner-Lambert Company, priority 1998, dated 2003).

The nature of data set [1]: Mouse blood levels after oral dosing. The class given is in vivo, Charles River CD-1 mice. The note with it: CD-1, mouse, plasma, mice, oral dose of 25 mg/kg; for Cmax: read-out: Cmax (maximum concentration reached within the plasma); for half-life: read-out: T 1/2 (half life) (converted). As to the method: Charles River CD-1 mice were dosed with a 25 mg/kg drug solution orally by gavage. For oral dosing the compounds were dissolved in 0.1N NaOH (20% final volume) and then 0.5% methylcellulose (80% final volume) was added. Blood was drawn and pooled from 5 mice at each time point via heart puncture and was placed in a 15 mL centrifuge tube containing heparin. The plasma stored in 200 μL aliquots at −80° C. until assayed.
Plasma was thawed at room temperature and then 400 μL of acetonitrile was added to each vial and vortexed. Following centrifugation the supernatant was removed and evaporated in a nitrogen evaporator at 48° C. Residue was then resolublized in 200 μL of a 75% water/25% CH3CN solution for HPLC analysis. HPLC analysis used a Zorbax RX-C8 column (4.6×150 mm) with a 25 mM potassium phosphate buffer with 0.1% TFA, pH 3.0. Mobile phases consisted of varying percentages of two buffer mixtures: Buffer A—90% buffer, 10% CH3CN, and Buffer B—30% buffer, 70% CH3CN.
A standard curve ranging from 0.5 to 50 μg/mL was used for each drug tested. Ten times final concentration solutions of drug in water were prepared from stock solutions of 1 mg/mL drug in DMSO. The final 1:10 dilution was then done in mouse plasma obtained from mice described above.

Data set [2] is described as follows: Dog blood levels after oral dosing. The format is in vivo. The note with it: plasma, dogs, oral dose of 10 mg/kg; for half-life: read-out: T 1/2 (half life) (converted). As to the method: (§1) The procedure for pharmacokinetics analysis in dogs and rats was similar. For dog studies, two dogs received a single oral 10 mg/kg dose of the HIV protease inhibitor as a solution. The protease inhibitor was dissolve in 0.1N NaOH followed by buffering or diluting with isotonic phosphate buffer or water depending on solubility. For rat studies. two male rats received a single oral 10 mg/kg gavage dose of the HIV protease inhibitor suspended in 0.5% methylcellulose. For the IV administration, the compounds were dissolved in 0.1N sodium hydroxide at a concentration of 10 mg/ml. The IV dose was given bolus. Blood samples were collected prior to dosing and at 0.25, 0.5, 1, 1.5, 2, 3, 4, 8, 12, and 24 hours postdose. Plasma samples were analyzed for the HIV protease inhibitor using a HPLC procedure. The method involved plasma protein precipitation with acetonitrile, reverse-phase chromatographic separation of the HIV protease inhibitor and internal standard, and quantitation by UV detection. Some plasma samples were concentrated by evaporation prior to injection. Pharmacokinetic parameters were determined by noncompartmental analysis of individual rat-plasma concentration-time curves using WinNonlin. Maximum concentration (Cmax) and time for these to occur (tmax) were recorded as observed. Area under concentration-time curve (AUC) values were obtained using the linear trapezoidal rule.

Data set [3] in a line: Rat blood levels after oral dosing. The format is in vivo. The note with it: male, plasma, rats, oral dose of 10 mg/kg; for Cmax: read-out: Cmax (maximum concentration reached within the plasma); for half-life: read-out: T 1/2 (half life) (converted). As to the method: as §1
In data set [4] the target is T1, Recombinant HIV-1 protease (Human immunodeficiency virus type 1 group M subtype B, UniProt P04585).
T1 construct: Recombinant HIV-1 protease (>96% purity); purchased Bachem Bioscience, Inc. (King of Prussia, Pa.)
Description: HIV protease assay (Ki determination, HPLC readout of substrate III cleavage). The format is biochemical.

A short description of data set [5]: Cellular toxicity in uninfected CEM cells, XTT (TC50). The note with it: human, uninfected CEM cells (lymphocyte derived). The method, then:
(§2) Compound concentrations were 0.32, 1, 3.2, 10, 32, and 100 uM.
(In general: Tetrazolium dyes change colour on reduction, which living cells bring about.)

Data set [6] deals with HIV infected lymphocyte derived CEM cells. Kind of data set: Cellular infection assay in CEM cells, XTT cytopathic procedure (EC50). The note with it: for TI (therapeutic index, TC50/EC50): CEM cells; for EC50: read-out: Antiviral Efficacy EC50. The method, then:
as §2

Data set [7] in a line: Rat blood levels after IV dosing. The class given is in vivo. The note with it: plasma, rats, IV dose of 10 mg/kg; for half-life: read-out: T 1/2 (half life) (converted). As to the method:
as §1

For data set [8] the following is noted: as disclosed by Vander Roest et al., ICAAC 1997, relative to related polar substituted derivatives; cited from earlier work.
Data set [9] relates to HIV infected lymphocyte derived CEM cells. The note with it: as disclosed by Hagen et al., J. Med. Chem. 1997; cited from earlier work.
Another data set concerns uninfected CEM cells. Kind of data set: Cellular toxicity in uninfected CEM cells, XTT (TC50). The note with it: read-out: Antiviral Efficacy TC50; uninfected CEM cells. As to the method:
as §2

Where [10] appears, read: Human immunodeficiency virus 1, CCRF-CEM.
Where [11] appears, read: recombinant HIV-1 protease, read-out: Inhib of HIV Protease KI.

Read-outs that look alike come from different tables or passages of the source. Bounds are passed on as bounds.

As a reminder, the Ki is a measure of affinity in units of concentration, obtained from inhibition or displacement. Broadly, the EC50 is the concentration giving half of the maximal effect. Regarding `Cc1cc(SC2=C(O)CC(CCc3ccc(N)cc3)(C(C)C)OC2=O)c(C(C)(C)C)cc1CO` (centres unmarked) [Reference Agent 1, reference compound], the Cmax in data set [1] worked out at 23 µM; in data set [2], 140 µM; in data set [3], 16 µM. In addition, the half-life in data set [1] is 2.2 h; in data set [2], 1.25 h; in [3], 3.4 h; in data set [7], 3.7 h. Moreover, in data set [4], the Ki amounted to 0.43 nM. For the same compound, the CC50 in [5] was > 100000 nM. Besides, in data set [6], the “TI (therapeutic index, TC50/EC50)” value was >200. In addition, the EC50 in data set [6] (setting [10]) came out at 500 nM. The C0 in data set [7] is 86 µM. Moreover, the pharmacokinetics in mice entry in data set [8] is reported as “comparatively good pharmacokinetics in mice”. In addition, in data set [9], the antiviral activity entry is “particularly good antiviral activity”.

Turning to `Cc1cc(SC2=C(O)CC(CCc3ccc(O)cc3)(C(C)C)OC2=O)c(C(C)(C)C)cc1CO` (centres unmarked) [Reference Agent 2, reference compound], the figures for the Cmax in data set [1], in data set [2] and in [3] were 17 µM, 40 µM and 3.4 µM, respectively. The half-life is 2 h in [1], 0.52 h in [2], 0.55 h in data set [3] and 3.9 h in [7]. In data set [4] (setting [11]), the Ki was 0.22 nM. For the same compound, the CC50 in data set [5] is > 100000 nM. Further, the “TI (therapeutic index, TC50/EC50)” value in data set [6] is listed as >166. The EC50 in [6] (setting [10]) was determined as 600 nM. The C0 in data set [7] came out at 100 µM. Besides, the pharmacokinetics in mice entry in data set [8] was “comparatively good pharmacokinetics in mice”. The antiviral activity entry in data set [9] is recorded as “particularly good antiviral activity”.

In the case of “3-(4-Amino-2-tert-butyl-5-methyl-phenylsulfanyl)-6-(2-furan-3-yl-ethyl)-4-hydroxy-6-isopropyl-5,6-dihydro-pyran-2-one [Example 36]”, the Ki in data set [4] (setting [11]) came to 1.7 nM. In addition, the CC50 in the data set on uninfected CEM cells came out at 170000 nM. The “TI (therapeutic index, TC50/EC50)” value in data set [6] stood at 77. Further, the EC50 in data set [6] (HIV infected CEM cells) worked out at 2200 nM.
